# Results taken from patent US20170232083A1, “METHODS OF DIAGNOSIS AND TREATMENT OF CELIAC DISEASE IN CHILDREN” (priority 2014, published 2017).
# Several values for one entry are separate records, joined by “and”; a condition that tells them apart may be missing. Equal entries are not always repeated. Non-standard residues stand in square brackets, D forms with d. pGlu = O=C1CC[C@@H](C(=O)O)N1
# Test system: peripheral blood mononuclear cells obtained from children
# Test: IFNγ ELISpot PBMC assay after oral wheat bread challenge (Examples 1-2)
# Type: cell-based, human
# Protocol: An oral wheat bread challenge was conducted in DQ2.5+ children and adolescents having Celiac disease. The age ranges were 3-5, 6-10 and 11-18 years of age. An ELISpot peripheral blood mononucleated cell (PBMC) assay was performed to measure the level of IFNγ released by the PBMCs after being contacted with peptide 1, peptide 2, peptide 3, or a combination thereof. The identities of peptides 1, 2, and 3 are shown below.
# The values the rows starting from “Blank (SFU)” and ending at “Pept-1/2/3 (150)” are all spot forming unit (SFU) values. The values in the parentheses in the first column are the concentration of each peptide in micrograms that were added to the PBMCs (e.g., Pept-1 50=50 micrograms of Peptide 1, Pept-1/2/3 50=50 micrograms of each of Peptide 1, Peptide 2, and Peptide 3). Pept-1=Peptide 1, Pept-2=Peptide 2, Pept-3=Peptide 3, the amino acid identities of which are mentioned above. D-Gli=deamidated gliadin. WT-Gli=wild-type gliadin. D-Glut=deamidated gluten. WT-Glut=wild-type gluten.
# IFNγ ELISpot responses in 9 older children (11-17 yo) and 6 younger children (3-10 yo) were stimulated by the mixture of peptides 1, 2, and 3 described in Example 1 (each peptide at a concentration of 25 ug/mL) or stimulated by deamidated gliadin (100 ug/mL) after 3-day wheat challenge (r2=0.8, p<0.0001). The ELISpot responses were similar using either the peptide mixture of the deamidated gliadin (FIG. 1).
sequence,measurement,setting,value
ELQPFPQPELPYPQPQ ([pGlu]LQPFPQPELPYPQPQ-NH2) [Peptide 1],most active peptides in gliadin for children,,most active
same,"SFU, IFNγ ELISpot","Subject B, 5.0 × 10^5 cells per well, 25 micrograms, listed as Pept-1",4 SFU and 3 SFU
same,"SFU, IFNγ ELISpot","Subject B, 5.0 × 10^5 cells per well, 100 micrograms, listed as Pept-1",3 SFU and 2 SFU
same,"SFU, IFNγ ELISpot","Subject C, 5.0 × 10^5 cells per well, 25 micrograms, listed as Pept-1",10 SFU and 5 SFU
same,"SFU, IFNγ ELISpot","Subject C, 5.0 × 10^5 cells per well, 50 micrograms, listed as Pept-1",6 SFU and 5 SFU
same,"SFU, IFNγ ELISpot","Subject D, 4.0 × 10^5 cells per well, 25 micrograms, listed as Pept-1",28 SFU and 32 SFU
same,"SFU, IFNγ ELISpot","Subject D, 4.0 × 10^5 cells per well, 50 micrograms, listed as Pept-1",23 SFU and 31 SFU
same,"SFU, IFNγ ELISpot","Subject D, 4.0 × 10^5 cells per well, 100 micrograms, listed as Pept-1",32 SFU and 25 SFU
same,"SFU, IFNγ ELISpot","Subject E, 5.0 × 10^5 cells per well, 25 micrograms, listed as Pept-1",177 SFU and 139 SFU
same,"SFU, IFNγ ELISpot","Subject E, 5.0 × 10^5 cells per well, 50 micrograms, listed as Pept-1",160 SFU and 144 SFU
same,"SFU, IFNγ ELISpot","Subject E, 5.0 × 10^5 cells per well, 100 micrograms, listed as Pept-1",139 SFU and 153 SFU
same,"SFU, IFNγ ELISpot","Subject F, 5.0 × 10^5 cells per well, 25 micrograms, listed as Pept-1",151 SFU and 146 SFU
same,"SFU, IFNγ ELISpot","Subject F, 5.0 × 10^5 cells per well, 50 micrograms, listed as Pept-1",186 SFU and 147 SFU
same,"SFU, IFNγ ELISpot","Subject F, 5.0 × 10^5 cells per well, 100 micrograms, listed as Pept-1",166 SFU and 138 SFU
same,"SFU, IFNγ ELISpot","Subject G, 4.0 × 10^5 cells per well, 25 micrograms, listed as Pept-1",8 SFU and 14 SFU
same,"SFU, IFNγ ELISpot","Subject G, 4.0 × 10^5 cells per well, 50 micrograms",10 SFU
same,"SFU, IFNγ ELISpot","Subject H, 3.5 × 10^5 cells per well, 25 micrograms, listed as Pept-1",14 SFU and 13 SFU
same,"SFU, IFNγ ELISpot","Subject H, 3.5 × 10^5 cells per well, 50 micrograms",8 SFU
same,"SFU, IFNγ ELISpot","Subject H, 3.5 × 10^5 cells per well, 100 micrograms, listed as Pept-1",9 SFU and 8 SFU
same,"SFU, IFNγ ELISpot","Subject I, 5.0 × 10^5 cells per well, 25 micrograms, listed as Pept-1",6 SFU and 7 SFU
same,"SFU, IFNγ ELISpot","Subject J, 5.0 × 10^5 cells per well, 25 micrograms, listed as Pept-1",103 SFU and 109 SFU
same,"SFU, IFNγ ELISpot","Subject J, 5.0 × 10^5 cells per well, 50 micrograms, listed as Pept-1",107 SFU and 92 SFU
same,"SFU, IFNγ ELISpot","Subject J, 5.0 × 10^5 cells per well, 100 micrograms, listed as Pept-1",109 SFU and 111 SFU
same,"SFU, IFNγ ELISpot","Subject K, 3.2 × 10^5 cells per well, 25 micrograms, listed as Pept-1",33 SFU and 28 SFU
same,"SFU, IFNγ ELISpot","Subject K, 3.2 × 10^5 cells per well, 50 micrograms, listed as Pept-1",28 SFU and 20 SFU
same,"SFU, IFNγ ELISpot","Subject K, 3.2 × 10^5 cells per well, 100 micrograms, listed as Pept-1",24 SFU and 38 SFU
same,"SFU, IFNγ ELISpot","Subject L, 3.5 × 10^5 cells per well, 25 micrograms, listed as Pept-1",10 SFU and 9 SFU
same,"SFU, IFNγ ELISpot","Subject L, 3.5 × 10^5 cells per well, 100 micrograms, listed as Pept-1",14 SFU and 7 SFU
same,"SFU, IFNγ ELISpot","Subject M, 2.3 × 10^5 cells per well, 25 micrograms, listed as Pept-1",34 SFU and 18 SFU
same,"SFU, IFNγ ELISpot","Subject M, 2.3 × 10^5 cells per well, 50 micrograms, listed as Pept-1",32 SFU and 30 SFU
same,"SFU, IFNγ ELISpot","Subject M, 2.3 × 10^5 cells per well, 100 micrograms, listed as Pept-1",45 SFU and 40 SFU
same,"SFU, IFNγ ELISpot","Subject N, 2.4 × 10^5 cells per well, 25 micrograms, listed as Pept-1",4 SFU and 6 SFU
same,"SFU, IFNγ ELISpot","Subject N, 2.4 × 10^5 cells per well, 100 micrograms, listed as Pept-1",5 SFU and 3 SFU
same,"SFU, IFNγ ELISpot","Subject P, 3.0 × 10^5 cells per well, 0.1 micrograms, listed as Pept-1",16 SFU and 15 SFU
same,"SFU, IFNγ ELISpot","Subject P, 3.0 × 10^5 cells per well, 0.5 micrograms, listed as Pept-1",21 SFU and 24 SFU
same,"SFU, IFNγ ELISpot","Subject P, 3.0 × 10^5 cells per well, 1 micrograms, listed as Pept-1",49 SFU and 31 SFU
same,"SFU, IFNγ ELISpot","Subject P, 3.0 × 10^5 cells per well, 2.5 micrograms, listed as Pept-1",45 SFU
same,"SFU, IFNγ ELISpot","Subject Q, 3.0 × 10^5 cells per well, 0.1 micrograms, listed as Pept-1",12 SFU and 18 SFU
same,"SFU, IFNγ ELISpot","Subject Q, 3.0 × 10^5 cells per well, 0.5 micrograms, listed as Pept-1",34 SFU and 32 SFU
same,"SFU, IFNγ ELISpot","Subject Q, 3.0 × 10^5 cells per well, 1 micrograms, listed as Pept-1",45 SFU and 36 SFU
same,"SFU, IFNγ ELISpot","Subject R, 3.0 × 10^5 cells per well, 0.1 micrograms, listed as Pept-1",12 SFU and 16 SFU
same,"SFU, IFNγ ELISpot","Subject R, 3.0 × 10^5 cells per well, 0.5 micrograms, listed as Pept-1",21 SFU and 26 SFU
same,"SFU, IFNγ ELISpot","Subject R, 3.0 × 10^5 cells per well, 1 micrograms, listed as Pept-1",22 SFU and 21 SFU
same,"SFU, IFNγ ELISpot","Subject S, 3.0 × 10^5 cells per well, 0.1 micrograms, listed as Pept-1",2 SFU and 4 SFU
same,"SFU, IFNγ ELISpot","Subject S, 3.0 × 10^5 cells per well, 0.5 micrograms, listed as Pept-1",1 SFU and 2 SFU
same,"SFU, IFNγ ELISpot","Subject S, 3.0 × 10^5 cells per well, 1 micrograms, listed as Pept-1",1 SFU and 2 SFU
same,"SFU, IFNγ ELISpot","Subject T, 3.0 × 10^5 cells per well, 0.1 micrograms, listed as Pept-1",20 SFU and 18 SFU
same,"SFU, IFNγ ELISpot","Subject T, 3.0 × 10^5 cells per well, 0.5 micrograms, listed as Pept-1",34 SFU and 31 SFU
same,"SFU, IFNγ ELISpot","Subject T, 3.0 × 10^5 cells per well, 1 micrograms, listed as Pept-1",55 SFU and 60 SFU
same,"SFU, IFNγ ELISpot","Subject U, 3.0 × 10^5 cells per well, 0.1 micrograms, listed as Pept-1",6 SFU and 7 SFU
same,"SFU, IFNγ ELISpot","Subject U, 3.0 × 10^5 cells per well, 0.5 micrograms, listed as Pept-1",18 SFU and 20 SFU
same,"SFU, IFNγ ELISpot","Subject U, 3.0 × 10^5 cells per well, 1 micrograms, listed as Pept-1",33 SFU and 24 SFU
same,T cell response in PBMC samples from children after gluten challenge,"general increase in SFU in each child, Tables 2-5",induce a T cell response
